In ChEMBL document CHEMBL1154825, “Schweinfurthins I and J from Macaranga schweinfurthii” (2010):

How the values were obtained:
Type in all cases: functional
[1] = test system: LOX IMVI; experiment: Growth inhibition of human LOXIMVI cells; details: for CC50: read-out: pLC50 (the source's name) (converted); for TGI: read-out: pTGI (converted)
[2] = test system: HOP-62; experiment: Growth inhibition of human HOP62 cells; details: for TGI: read-out: pTGI (converted)
[3] = test system: UO-31; experiment: Growth inhibition of human UO31 cells; details: for TGI: read-out: pTGI (converted)
[4] = test system: HOP-92; experiment: Growth inhibition of human HOP92 cells; details: for CC50: read-out: pLC50 (the source's name) (converted); for TGI: read-out: pTGI (converted)
[5] = test system: OVCAR-4; experiment: Growth inhibition of human OVCAR4 cells; details: for CC50: read-out: pLC50 (the source's name) (converted); for TGI: read-out: pTGI (converted)
[6] = test system: SF-268; experiment: Growth inhibition of human SF268 cells; details: for TGI: read-out: pTGI (converted)
[7] = test system: T47D; experiment: Growth inhibition of human T47D cells; details: for TGI: read-out: pTGI (converted)
[8] = test system: PC-3; experiment: Growth inhibition of human PC3 cells; details: for TGI: read-out: pTGI (converted)
[9] = Growth inhibition of human NCI60 cells
[10] = test system: KM12; experiment: Growth inhibition of human KM12 cells; details: for TGI: read-out: pTGI (converted)
[11] = test system: EKVX; experiment: Growth inhibition of human EKVX cells; details: for TGI: read-out: pTGI (converted)
[12] = test system: SNB-75; experiment: Growth inhibition of human SNB75 cells; details: for TGI: read-out: pTGI (converted)
[13] = test system: A549; experiment: Growth inhibition of human A549 cells; details: for TGI: read-out: pTGI (converted)
[14] = test system: UACC-62; experiment: Growth inhibition of human UACC62 cells; details: for CC50: read-out: pLC50 (the source's name) (converted); for TGI: read-out: pTGI (converted)
[15] = test system: IGROV-1; experiment: Growth inhibition of human IGROV1 cells; details: for CC50: read-out: pLC50 (the source's name) (converted); for TGI: read-out: pTGI (converted)
[16] = test system: HL-60(TB); experiment: Growth inhibition of human HL-60(TB) cells; details: for CC50: read-out: pLC50 (the source's name) (converted); for TGI: read-out: pTGI (converted)
[17] = test system: NCI-H322M; experiment: Growth inhibition of human NCI-H322M cells; details: for TGI: read-out: pTGI (converted)
[18] = test system: UACC-257; experiment: Growth inhibition of human UACC257 cells; details: for TGI: read-out: pTGI (converted)

With `CC(C)=CCC/C(C)=C/CC/C(C)=C/Cc1c(O)cc(/C=C/c2ccc(O)cc2)cc1O` [SCHWEINFURTHIN J] the GI50 [1] was 1.7 µM, the CC50 [1] was 5.89 µM and the TGI [1] was 3.16 µM. For the same compound, the GI50 [2] was 2.04 µM, the LC50 [2] was 7.41 µM and the TGI [2] was 3.89 µM. For the same compound, the GI50 [3] was 1.32 µM, the LC50 (concentration killing 50% of cells) [3] was 34.7 µM and the TGI [3] was 10.2 µM. For the same compound, the GI50 [4] was 2.29 µM, the CC50 [4] was 34.7 µM and the TGI [4] was 8.32 µM. It also gave a GI50 [5] of 3.89 µM, a CC50 [5] of 39.8 µM and a TGI [5] of 14.8 µM. The GI50 [6] was 2.63 µM, the LC50 [6] was 38 µM and the TGI [6] was 11.5 µM. It also gave a GI50 [7] of 2.63 µM, an LC50 [7] of 52.5 µM and a TGI [7] of 13.2 µM. For the same compound, the GI50 [8] was 3.02 µM, the LC50 [8] was 42.7 µM and the TGI [8] was 13.5 µM. The GI50 [9] was 2.8 µM, the GI50 [10] was 2.75 µM and the LC50 [10] was 31.6 µM. For the same compound, the TGI [10] was 8.91 µM, the GI50 [11] was 4.27 µM and the LC50 [11] was 46.8 µM. The TGI [11] was 16.6 µM, the GI50 [12] was 8.91 µM and the LC50 [12] was 46.8 µM. The TGI [12] was 21.4 µM, the GI50 [13] was 3.31 µM and the LC50 [13] was 42.7 µM. For the same compound, the TGI [13] was 12.9 µM, the GI50 [14] was 2.24 µM and the CC50 [14] was 15.8 µM. The TGI [14] was 5.25 µM, the GI50 [15] was 2.34 µM and the CC50 [15] was 38.9 µM. It also gave a TGI [15] of 11.2 µM, a GI50 [16] of 2.57 µM and a CC50 [16] of over 100 µM. It also gave a TGI [16] of 18.6 µM, a GI50 [17] of 6.17 µM and an LC50 [17] of 47.9 µM. It also gave a TGI [17] of 20 µM, a GI50 [18] of 4.68 µM and an LC50 [18] of 41.7 µM. The TGI [18] was 16.2 µM.

For `CC(C)=CCC/C(C)=C/Cc1cc(/C=C/c2cc(O)cc(O)c2)ccc1O` [SCHWEINFURTHIN I], the GI50 [1] was 7.24 µM, the CC50 [1] was 50.1 µM and the TGI [1] was 20.9 µM. The GI50 [2] was 14.5 µM, the LC50 [2] was 53.7 µM and the TGI [2] was 27.5 µM. The GI50 [3] was 6.76 µM, the LC50 (concentration killing 50% of cells) [3] was 47.9 µM and the TGI [3] was 20.9 µM. For the same compound, the GI50 [4] was 12.9 µM, the CC50 [4] was 77.6 µM and the TGI [4] was 31.6 µM. For the same compound, the GI50 [5] was 10 µM, the CC50 [5] was 50.1 µM and the TGI [5] was 22.4 µM. For the same compound, the GI50 [6] was 8.71 µM, the LC50 [6] was 51.3 µM and the TGI [6] was 21.9 µM. It also gave a GI50 [7] of 10.2 µM, an LC50 [7] of 81.3 µM and a TGI [7] of 28.8 µM. For the same compound, the GI50 [8] was 6.61 µM, the LC50 [8] was 49 µM and the TGI [8] was 20.4 µM. The GI50 [9] was 10 µM, the GI50 [10] was 7.08 µM and the LC50 [10] was 49 µM. For the same compound, the TGI [10] was 20.4 µM, the GI50 [11] was 10.5 µM and the LC50 [11] was 50.1 µM. For the same compound, the TGI [11] was 22.9 µM, the GI50 [12] was 11.2 µM and the LC50 [12] was 52.5 µM. It also gave a TGI [12] of 24.5 µM, a GI50 [13] of 10.5 µM and an LC50 [13] of 66.1 µM. The TGI [13] was 26.3 µM, the GI50 [14] was 10.7 µM and the CC50 [14] was 51.3 µM. The TGI [14] was 23.4 µM, the GI50 [15] was 11.7 µM and the CC50 [15] was 55 µM. It also gave a TGI [15] of 25.1 µM, a GI50 [16] of 5.37 µM and a CC50 [16] of 77.6 µM. The TGI [16] was 23.4 µM, the GI50 [17] was 11.5 µM and the LC50 [17] was 51.3 µM. For the same compound, the TGI [17] was 24.5 µM, the GI50 [18] was 14.5 µM and the LC50 [18] was 60.3 µM. The TGI [18] was 29.5 µM.
